# ChEMBL document CHEMBL1201862, “PubChem BioAssay data set” (2004)
# Activity calls are given as the source filed them.
# How the values were obtained:
# [1] = HEK293T cytotoxicity, dose response, cytotoxicity control for miR-122 modulator project, cell-based, activator set, cherry-pick (AID 720690); assay type: functional;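 note: HEK293T human cells scored for general mammalian cytotoxicity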
# [2] = human group III sPLA2 inhibitors, dose response, biochemical, QFRET, IC50 (AID 743457);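 note: green fluorescence rise as the enzyme cleaves BODIPY PC-A2 in liposomes; potency for inhibition of the enzyme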
# Major prion protein = Major prion protein (Homo sapiens, UniProt P04156); assay type: functional, cell-based
# cells [3] = experiment: cells
# [4] = target: T1, Oxysterols receptor LXR-beta (Homo sapiens, UniProt P55055); assay type: functional, cell-based;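 note: Cell-based luminescence dose-response assay of agonist activity at LXR, run as a confirmatory counterscreen to a daf-12 agonist screen; HEK293 cells with Gal4-LXR fusion and GAL4-driven luciferase reporter; agonist potency from rising luciferase signal of a Gal4-LXR reporter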
# T1 sequence (P55055 whole entry): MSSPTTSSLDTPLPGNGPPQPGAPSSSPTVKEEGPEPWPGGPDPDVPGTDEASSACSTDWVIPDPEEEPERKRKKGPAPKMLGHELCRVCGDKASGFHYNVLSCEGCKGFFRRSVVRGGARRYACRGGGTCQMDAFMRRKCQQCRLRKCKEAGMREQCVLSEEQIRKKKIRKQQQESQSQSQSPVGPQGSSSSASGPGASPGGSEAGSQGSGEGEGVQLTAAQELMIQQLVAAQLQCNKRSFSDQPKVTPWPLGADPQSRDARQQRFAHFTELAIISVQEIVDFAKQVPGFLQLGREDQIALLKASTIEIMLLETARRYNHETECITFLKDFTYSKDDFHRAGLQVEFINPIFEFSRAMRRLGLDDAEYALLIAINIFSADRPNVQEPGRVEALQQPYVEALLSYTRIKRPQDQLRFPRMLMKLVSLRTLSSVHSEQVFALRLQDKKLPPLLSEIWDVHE
# cells [5] = experiment: cells; remark: listed apart in the source
# [6] = target: T2, Polyadenylate-binding protein 1 (Homo sapiens, UniProt P11940); experiment: PABP1 MLLE–PAM2 binding inhibitor potency, dose response, biochemical, fluorescence polarization, FITC-PAM2 peptide (AID 602259); assay type: functional; conditions: read-out: IC50_Mean
# [7] = target: T2, Polyadenylate-binding protein 1; experiment: PABP1 MLLE–PAM2 interaction inhibitors, dose response, miRNA deadenylation inhibitor project, biochemical, fluorescence polarization, Cy5-PAM2 peptide, secondary (AID 602260); assay type: functional; conditions: read-out: IC50_Mean
# Nonstructural protein 1 = Nonstructural protein 1 (Influenza A virus, UniProt Q194T2); assay type: functional, Influenza A virus (A/California/07/2009(H1N1))
# Cytochrome P450 2C9 = Cytochrome P450 2C9 (Homo sapiens, UniProt P11712)
# [8] = target: Peroxisome proliferator-activated receptor gamma/Nuclear receptor coactivator 3 (Homo sapiens, UniProt P37231); experiment: TR-FRET dose response biochemical High Throughput Screening assay for agonists of the steroid receptor coactivator 3 (SRC-3) recruitment by the peroxisome proliferator-activated receptor gamma (PPAR gamma): non-selective agonists. [Related pubchem assays: 1301 (Confirmation screen.), 1048 (Primary screen.)]; assay type: functional
# [9] = target: Peroxisome proliferator-activated receptor gamma/Nuclear receptor coactivator 2 (Homo sapiens, UniProt P37231); experiment: (§1) TR-FRET dose response biochemical High Throughput Screening assay for agonists of the steroid receptor coactivator 2 (SRC-2) recruitment by the peroxisome proliferator-activated receptor gamma (PPAR gamma): non-selective agonists. [Related pubchem assays: 1297, 1032 ]; assay type: functional
# [10] = target: Peroxisome proliferator-activated receptor gamma/Nuclear receptor coactivator 1 (Homo sapiens, UniProt P37231); experiment: as §1, with “1 (SRC-1)” for “2 (SRC-2)”, “assays (depositor defined):AID1300, AID1808, AID504735, AID631]” for “assays: 1297, 1032 ]”; assay type: protein assay
# Streptococcus = experiment: Group A Streptococcus viability loss, dose response, counter-screen for streptokinase expression inhibitor project, luminescence, BacTiterGlo (AID 1915); assay type: functional, organism-based;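 note: potency for reduction of bacterial viability or growth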
# Albumin = Albumin (Bos taurus, UniProt P02769); experiment: Counterscreen for inhibitors of T-cell receptor (TCR)-CD3 interaction: Fluorescence-based biochemical high throughput dose response assay to identify inhibitors of T-cell receptor (TCR)-CD3 interaction using a TAMRA-labeled BSA probe.; assay type: functional
# [11] = system: Streptococcus sp. 'group A'; experiment: growth inhibition of control SK(-) GAS strain, dose response, counter-screen for streptokinase expression inhibitor project, luminescence, kanamycin, BacTiterGlo, confirmation (AID 1900); assay type: functional, organism-based
# Aminopeptidase N = target: T3, Aminopeptidase N (Plasmodium falciparum FcB1/Columbia, UniProt O96935); experiment: P. falciparum M1AAP inhibitors, biochemical, fluorogenic H-Leu-NHMec substrate, 1536-well (AID 1445); set-up: species or system Plasmodium falciparum 3D7, 3D7
# T3 sequence (O96935 whole entry): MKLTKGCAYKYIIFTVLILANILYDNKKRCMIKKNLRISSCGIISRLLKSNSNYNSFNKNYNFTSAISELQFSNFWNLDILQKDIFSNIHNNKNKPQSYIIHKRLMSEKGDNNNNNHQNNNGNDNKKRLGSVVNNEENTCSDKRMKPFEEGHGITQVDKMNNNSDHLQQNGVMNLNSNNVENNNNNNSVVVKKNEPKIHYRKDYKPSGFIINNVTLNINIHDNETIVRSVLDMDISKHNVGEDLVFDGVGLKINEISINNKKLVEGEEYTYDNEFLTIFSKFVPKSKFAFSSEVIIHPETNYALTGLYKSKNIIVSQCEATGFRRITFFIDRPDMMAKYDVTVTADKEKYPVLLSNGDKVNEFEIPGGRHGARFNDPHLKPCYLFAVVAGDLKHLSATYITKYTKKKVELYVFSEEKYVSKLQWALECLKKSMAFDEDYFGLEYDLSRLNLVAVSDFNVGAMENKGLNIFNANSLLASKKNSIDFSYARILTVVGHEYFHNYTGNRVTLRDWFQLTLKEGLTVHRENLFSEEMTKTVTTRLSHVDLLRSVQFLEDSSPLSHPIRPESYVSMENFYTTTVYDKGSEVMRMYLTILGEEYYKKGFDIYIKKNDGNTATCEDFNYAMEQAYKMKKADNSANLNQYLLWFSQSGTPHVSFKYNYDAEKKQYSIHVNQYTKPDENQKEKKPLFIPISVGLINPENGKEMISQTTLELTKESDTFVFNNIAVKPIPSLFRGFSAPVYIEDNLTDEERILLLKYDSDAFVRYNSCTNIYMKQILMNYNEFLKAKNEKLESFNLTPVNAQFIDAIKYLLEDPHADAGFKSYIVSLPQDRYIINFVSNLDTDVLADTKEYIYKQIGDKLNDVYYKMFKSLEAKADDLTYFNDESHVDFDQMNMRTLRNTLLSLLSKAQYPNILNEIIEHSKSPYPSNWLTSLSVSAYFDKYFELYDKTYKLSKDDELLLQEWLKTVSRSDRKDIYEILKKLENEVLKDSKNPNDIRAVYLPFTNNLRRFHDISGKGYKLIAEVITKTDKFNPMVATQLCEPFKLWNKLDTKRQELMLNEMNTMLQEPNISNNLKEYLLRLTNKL
# [12] = target: T4, Rac GTPase-activating protein 1 (Homo sapiens, UniProt Q9H0H5); experiment: MgcRacGAP GTPase-activating activity inhibitors, confirmation, biochemical, ADP Hunter fluorescence, primary and confirmatory (AID 624330); assay type: functional
# T4 sequence (Q9H0H5 whole entry): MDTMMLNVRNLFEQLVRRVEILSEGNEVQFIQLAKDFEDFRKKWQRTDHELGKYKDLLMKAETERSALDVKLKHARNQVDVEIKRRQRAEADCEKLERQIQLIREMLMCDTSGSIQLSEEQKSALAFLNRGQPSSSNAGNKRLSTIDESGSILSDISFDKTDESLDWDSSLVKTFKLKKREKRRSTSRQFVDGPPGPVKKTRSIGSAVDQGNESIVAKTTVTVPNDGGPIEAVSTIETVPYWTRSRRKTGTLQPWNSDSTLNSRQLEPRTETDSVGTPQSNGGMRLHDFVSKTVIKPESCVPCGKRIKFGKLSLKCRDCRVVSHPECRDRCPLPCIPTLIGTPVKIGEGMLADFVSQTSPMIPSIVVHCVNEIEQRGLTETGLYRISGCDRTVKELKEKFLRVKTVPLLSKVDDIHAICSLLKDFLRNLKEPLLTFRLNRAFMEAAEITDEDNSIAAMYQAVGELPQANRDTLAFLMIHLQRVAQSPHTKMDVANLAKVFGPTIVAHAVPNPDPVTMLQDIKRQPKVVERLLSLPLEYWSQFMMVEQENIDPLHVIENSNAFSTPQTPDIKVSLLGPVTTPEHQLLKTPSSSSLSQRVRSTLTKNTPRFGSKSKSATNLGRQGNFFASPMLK
# [13] = target: T5, Histone-lysine N-methyltransferase NSD2 (Homo sapiens, UniProt O96028); assay type: biochemical
# T5 sequence (O96028 whole entry): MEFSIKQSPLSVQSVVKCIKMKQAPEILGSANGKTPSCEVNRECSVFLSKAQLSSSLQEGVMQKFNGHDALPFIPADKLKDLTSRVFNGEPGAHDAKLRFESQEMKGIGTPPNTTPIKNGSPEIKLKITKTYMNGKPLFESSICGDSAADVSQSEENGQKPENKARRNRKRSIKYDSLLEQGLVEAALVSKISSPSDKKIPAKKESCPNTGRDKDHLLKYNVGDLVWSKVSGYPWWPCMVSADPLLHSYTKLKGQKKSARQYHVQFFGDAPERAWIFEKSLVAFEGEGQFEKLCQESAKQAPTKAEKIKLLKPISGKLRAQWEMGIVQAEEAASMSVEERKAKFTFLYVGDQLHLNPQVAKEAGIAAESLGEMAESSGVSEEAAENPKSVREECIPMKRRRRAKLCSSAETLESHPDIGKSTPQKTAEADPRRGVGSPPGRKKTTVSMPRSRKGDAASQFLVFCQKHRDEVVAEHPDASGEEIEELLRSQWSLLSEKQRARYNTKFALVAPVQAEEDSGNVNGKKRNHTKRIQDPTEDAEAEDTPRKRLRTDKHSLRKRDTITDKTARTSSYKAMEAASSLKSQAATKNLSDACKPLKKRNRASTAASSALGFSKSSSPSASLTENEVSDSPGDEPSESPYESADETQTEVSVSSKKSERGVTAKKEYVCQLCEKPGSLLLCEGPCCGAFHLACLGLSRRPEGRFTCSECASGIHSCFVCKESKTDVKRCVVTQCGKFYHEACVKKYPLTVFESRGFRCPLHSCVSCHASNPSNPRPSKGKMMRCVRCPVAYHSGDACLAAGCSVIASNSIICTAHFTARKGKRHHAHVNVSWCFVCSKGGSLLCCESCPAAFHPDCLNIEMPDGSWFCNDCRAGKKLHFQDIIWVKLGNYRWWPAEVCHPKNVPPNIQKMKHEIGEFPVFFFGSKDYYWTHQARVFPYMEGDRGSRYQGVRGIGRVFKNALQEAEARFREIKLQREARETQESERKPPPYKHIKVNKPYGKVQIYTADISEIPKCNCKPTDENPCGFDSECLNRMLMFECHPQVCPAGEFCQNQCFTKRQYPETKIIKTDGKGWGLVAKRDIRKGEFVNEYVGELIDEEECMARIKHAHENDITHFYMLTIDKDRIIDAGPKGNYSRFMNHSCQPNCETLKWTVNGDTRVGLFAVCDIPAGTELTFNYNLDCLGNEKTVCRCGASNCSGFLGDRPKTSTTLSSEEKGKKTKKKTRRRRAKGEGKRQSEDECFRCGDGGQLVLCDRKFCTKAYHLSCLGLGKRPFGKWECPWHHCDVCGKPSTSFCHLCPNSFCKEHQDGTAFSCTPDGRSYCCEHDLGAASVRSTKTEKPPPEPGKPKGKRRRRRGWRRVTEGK
# Cytochrome P450 2D6 = Cytochrome P450 2D6 (Homo sapiens, UniProt P10635);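 note: CYP2D6 member of a cytochrome P450 panel assay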
smiles,measurement,setting,value
COCC(=O)N1[C@H](CO)[C@@H](c2ccccc2)[C@H]1CNC(=O)c1ccccn1,AC50,[1],37.2 µM (active)
CCOc1cc(NC(=O)C(C)C)c(OCC)cc1N=C(S)NCc1ccccc1,IC50,[2],> 122 µM (inactive)
CCN(CC)S(=O)(=O)c1ccc(NC(=O)CSc2ncnc3ccccc23)cc1,IC50,Major prion protein,7.17 µM (active)
same,IC50,cells [3],> 138 µM (inactive)
O=C(Nc1ccc(Cl)cc1)N1C[C@H]2[C@@H](c3ccccc31)[C@H](CO)N2CC1CCCCC1,AC50,[1],28.7 µM (active)
COc1ccc(-c2cc3ccccc3c(=O)o2)cc1,EC50,[4],> 67.5 µM (inactive)
same,EC50,cells [5],> 67.5 µM (inactive)
CC(C)c1nc(SCC(=O)N2CC(=O)Nc3ccccc32)c2ccccc2n1,IC50,Major prion protein,2.41 µM (active)
same,IC50,cells [3],67.3 µM (inactive)
O=C(CSc1ncnc2ccccc12)NCc1ccco1,IC50,Major prion protein,6.83 µM (active)
same,IC50,[6],> 66 µM (inactive)
same,IC50,cells [3],> 138 µM (inactive)
same,IC50,[7],> 66 µM (inactive)
O=C1c2ccccc2C(=O)c2c1cccc2N1CCOCC1,IC50,Nonstructural protein 1,19.7 µM (active)
same,IC50,[2],> 122 µM (inactive)
c1ccc(Cc2nnc(Sc3ccccc3)c3ccccc23)cc1,AC50,Cytochrome P450 2C9,25.1 µM (inconclusive)
same,EC50,[8],> 79.4 µM (not active)
same,IC50,Major prion protein,6.51 µM (active)
same,IC50,cells [3],64 µM (inactive)
same,EC50,[9],2.35 µM (active)
same,EC50,[10],> 79.4 µM (inactive)
Cc1[nH]n(-c2ccccc2)c(=O)c1N=Nc1ccccc1O,EC50,Streptococcus,2.12 µM (active)
same,IC50,Albumin,> 94.1 µM (inactive)
same,EC50,[11],1.48 µM (active)
same,IC50,Aminopeptidase N,< 1 µM (active)
Cc1ccc(Nc2nnc(S)s2)c(C)c1,IC50,[12],154 µM (active)
same,IC50,[2],> 122 µM (inactive)
CC1CCCC(C)N1/N=C/c1ccc(O)c(O)c1 (centres undefined),AC50,[13],9.77 µM (active)
same,IC50,Albumin,> 94.1 µM (inactive)
COc1cccc(OCC(=O)NNC(=O)c2ccc3ccccc3c2O)c1,IC50,Albumin,> 94.1 µM (inactive)
same,IC50,[2],> 122 µM (inactive)
Clc1cccc(Nc2ncnc3ccc(Br)cc23)c1,AC50,Cytochrome P450 2D6,31.6 µM (inconclusive)
same,IC50,Major prion protein,6.28 µM (active)
same,IC50,cells [3],122 µM (inactive)
